Source: patent US20050004193A1, “Pharmaceutical combination for the prevention or treatment of cardiovascular, cardiopulmonary, pulmonary, or renal diseases” (Boehringer Ingelheim International GmbH, priority 2003, published 2005)
Values joined by “and” are separate entries in the source; they are usually repeats but may differ in a detail not shown here. Equal values may be shown once. One block for each molecule: values may come before it.

What was measured:
[1] = target: T1, human PPARgamma-ligand binding domain (LBD) (Homo sapiens, UniProt P37231); test: AlphaScreen: recruiting of CBP LXXLL peptide by GST-PPARgamma-LBD; assay type: biochemical; conditions: for direct activation of the PPARgamma-LBD / recruiting of the LXXLL peptide: concentrations of up to 50 μM
T1 construct: codes for the amino acids 205-505 of the human PPARgamma2 transcription factor; made in house; host or cells: E. coli BL21(DE3), vector pGEX4T-1
T1 sequence (P37231 205-505): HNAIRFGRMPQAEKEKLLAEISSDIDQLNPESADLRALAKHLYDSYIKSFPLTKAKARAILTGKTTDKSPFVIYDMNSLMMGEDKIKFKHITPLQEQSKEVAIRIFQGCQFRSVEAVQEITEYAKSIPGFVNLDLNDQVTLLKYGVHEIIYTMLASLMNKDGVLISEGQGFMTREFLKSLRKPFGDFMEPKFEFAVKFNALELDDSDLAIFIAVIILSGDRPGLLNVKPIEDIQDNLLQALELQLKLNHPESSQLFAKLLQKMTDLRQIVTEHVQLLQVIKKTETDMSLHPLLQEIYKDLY
Protocol: Protein containing the human PPARgamma-ligand binding domain (LBD) is prepared as a GST fusion protein in E. coli and purified by affinity chromatography. […] The fusion protein is expressed in the E. coli strain BL21(DE3) recommended for pGEX vectors after induction with 0.2 mM IPTG for 4 hours at 25° C. The bacteria are pelleted after the induction and frozen in batches in PBS, pH 7.4. After opening up in a French Press, the dissolved GST-PPARgamma-LBD-fusion protein is purified using a GSTrap column (Pharmacia). Elution is carried out by the addition of 20 mM reduced glutathione. The GST-PPARgamma-LBD-protein fractions are desalinated using a HiTrap desalting column (Pharmacia) and the protein concentration is determined using a standard assay.
The assay buffer consists of 25 mM Hepes pH7.4, 100 mM NaCl, 1 mM DTT, 0.1% Tween-20, and 0.1% BSA. […] The final DMSO concentration in the assay is 1% (v/v). A 1% DMSO solution is used as the background control (NSB). The measurement is done using a Packard fusion measuring device.

[2] = target: T2, human PPARgamma-ligand binding domain (LBD) (Homo sapiens, UniProt P37231); test: SPA assay: displacement of 3H-labeled rosiglitazone from PPARgamma-LBD; conditions: for MW (SPA signal, bound 3H-rosiglitazone): NSB 217, Bmax 911; for displacement of the radioactive rosiglitazone from the binding pocket: very large excesses of test substance
T2 sequence (P37231 205-505): T1 sequence (P37231 205-505)
T2 sequence (P19793 220-461 partner limits assumed): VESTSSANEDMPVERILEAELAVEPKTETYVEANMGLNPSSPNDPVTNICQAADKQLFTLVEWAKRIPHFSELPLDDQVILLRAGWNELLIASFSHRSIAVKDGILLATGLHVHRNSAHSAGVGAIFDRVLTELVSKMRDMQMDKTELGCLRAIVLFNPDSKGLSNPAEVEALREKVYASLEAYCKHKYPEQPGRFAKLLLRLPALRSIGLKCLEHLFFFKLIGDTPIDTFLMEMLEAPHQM
Protocol: Protein containing the human PPARgamma-ligand binding domain (LBD) is prepared as a GST fusion protein in E. coli and purified by affinity chromatography. To do this, a DNA section which codes for the amino acids 205-505 of the human PPARgamma2 transcription factor (cf. Genbank entry U79012) is subcloned via the additionally inserted restriction cutting sites BamH I and Xho I into the expression vector pGEX4T-I (Amersham) and the sequence of the section is monitored. […] The bacteria are pelleted after the induction and frozen in batches in PBS, pH 7.4. After opening up in a French Press, the dissolved GST-PPARgamma-LBD-fusion protein is purified using a GSTrap column (Pharmacia). Elution is carried out by the addition of 20 mM reduced glutathione. The GST-PPARgamma-LBD-protein fractions are desalinated using a HiTrap desalting column (Pharmacia) and the protein concentration is determined using a standard assay. Protein containing the human RXRalpha ligand binding domain (LBD) is prepared as a His tag fusion protein in E. coli and purified by affinity chromatography. To do this, a DNA section which codes for the amino acids 220-461 of the human RXRalpha transcription factor (cf. Genbank entry NM_002957, nt 729-1457) is subcloned via the additionally introduced restriction cutting sites BamH I and Not I into the expression vector pET28c (Novagen) and the sequence of the section is monitored. The fusion protein is expressed in the E. […] The bacteria are pelleted after the expression and frozen in batches in PBS, pH 7.4. After opening up in a French Press, the dissolved His-RXRalpha-LBD-fusion protein is purified using a HiTrap chelating column (Pharmacia). Elution is carried out using a 500 mM imidazole step. The His-RXRalpha-LBD protein fractions are desalinated using a HiTrap desalting column (Pharmacia) and the protein concentration is determined using a standard assay. A description of the SPA assay format can be found in R. Mukherjee et al., J Steroid Biochem Mol Biol (2002) 81:217-225.

[3] = Dissolution of active substances from Tablet 3; assay type: physicochemical; conditions: Tablet 3, three batches
Description: This combination of active substances and excipients is then compressed with a suitable tablet press (e.g., Korsch EKO or Fette P1200) to form tablets. […]

[4] = target: T3, fusion protein of ligand binding domain of human PPARgamma2 transcription factor and yeast GAL4 DNA binding domain (Homo sapiens, UniProt P37231); test: Luciferase activity in stably transformed PPARgamma reporter cell line (CHO-K1 clone 11); assay type: cell-based
T3 construct: codes for amino acids 205-505 of the human PPARgamma2 transcription factor; expressed in transfected cells
T3 sequence (P37231 205-505): T1 sequence (P37231 205-505)

Compound: NS(=O)(=O)c1cc2c(cc1Cl)NCNS2(=O)=O [hydrochlorothiazide]
- dissolution of hydrochlorothiazide from tablets ([3]; 900 mL of 0.1 M HCl, 100 rpm, 30 minutes): 69±6.3% and 72±2.1% and 78±1.8%

Compound: CCCCc1nc(Cl)c(CO)n1Cc1ccc(-c2ccccc2-c2nn[nH]n2)cc1 [Losartan]
- direct activation of the PPARgamma-LBD / recruiting of the LXXLL peptide [1]: does not result in any direct activation of the PPARgamma-LBD
- displacement of the radioactive rosiglitazone from the binding pocket [2]: no concentration-dependent displacement of the radioactive rosiglitazone

Second part, led by results:

- MW (SPA signal, bound 3H-rosiglitazone) ([2]; conc. 1.00E-04 M): 510
- MW (SPA signal, bound 3H-rosiglitazone) ([2]; conc. 3.00E-07 M): 810
Compound: CCCCC1=NC2(CCCC2)C(=O)N1Cc1ccc(-c2ccccc2-c2nnn[nH]2)cc1 [Irbesartan]
- direct activation of the PPARgamma-LBD / recruiting of the LXXLL peptide [1]: does not result in any direct activation of the PPARgamma-LBD
- displacement of the radioactive rosiglitazone from the binding pocket [2]: no concentration-dependent displacement of the radioactive rosiglitazone

- dissolution of telmisartan sodium salt from tablets ([3]; 900 mL of 0.1 M phosphate buffer, pH 7.5, 30 minutes stirring, 75 rpm): 92±1.5% and 96±1.8% and 100±1.0%
Compound: CCCc1nc2c(C)cc(-c3nc4ccccc4n3C)cc2n1Cc1ccc(-c2ccccc2C(=O)[O-])cc1.[Na+] [telmisartan sodium salt]

- MW (AlphaScreen signal) ([1]; conc. 3.00E-06 M): 720
- MW (luciferase activity) ([4]; conc. 3.00E-07 M, 24 hours): 760 RLU
Compound: CCCc1nc2c(C)cc(-c3nc4ccccc4n3C)cc2n1Cc1ccc(-c2ccccc2C(=O)O)cc1 [Telmisartan, 4′-[2-n-propyl-4-methyl-6-(1-methylbenzimidazol-2-yl)benzimidazol-1-ylmethyl]biphenyl-2-carboxylic acid]
- direct activation of the PPARgamma-LBD / recruiting of the LXXLL peptide [1]: does not result in any direct activation of the PPARgamma-LBD
- displacement of the radioactive rosiglitazone from the binding pocket [2]: no concentration-dependent displacement of the radioactive rosiglitazone
- activation of the PPARgamma pathway in the PPARgamma reporter cell line [4]: particularly potent activation of the PPARgamma pathway
